{"source": "patent US20250115571A1", "about": "“OXOPIPERAZINE DERIVATIVES” (Inthera Bioscience AG, priority 2017, published 2025)", "key": {"CaSki cells": {"tested_on": "CaSki cells", "test": "Colony Formation Assay (CFA), 14 days", "format": "cell-based", "conditions": "Homo sapiens, Ca-Ski, 336 h; for inhibition at 0.7 µM: colony formation assay, class by % inhibition at 0.7, 6 or 50 μM", "from_the_text": "Cell culture: CaSki cells were obtained from CLS GmbH, Eppelheim, Germany (cat. 300145) and subcultured in ready-to-use RPMI1640 Media (CLS GmbH cat. 820700) after addition of “Antibiotic Antimycotic Solution” (Sigma-Aldrich, St Louis, USA, cat. A5955) at 1:100 dilution. CaSki cells were expanded and aliquots kept frozen in liquid nitrogen according to manufacturer's instructions. Once thawed, aliquots were passaged every second or third day at a seed density of 20′000 cells/cm^2; and used for a maximum of twenty passages.\nPreparation of the cells for CFA: Cell culture flasks were rinsed twice with Ca++/Mg++-free Phosphate-Buffered Saline (DPBS, CLS GmbH cat. 860015) and incubated with Accutase (CLS GmbH cat. 830100) for 15 min at 37° C. Cells were resuspended in a four-fold volume of ready-to use RPMI, centrifuged at 300 g for 10 minutes, the supernatant discarded and the cells resuspended in ready-to-use RPMI1640 by pipetting up and down ten times with a serological pipette. Cell density was determined with a Via-1 Cassette (Chemometec, Allerod, Denmark) on a Nucleocounter NC 3000 (Chemometec). The required amount of cells was first diluted 1:10 in ready-to-use RPMI; cells pipetted five times up-down with a serological pipette; and the 1:10 solution added to the final volume needed for the whole assay setup. Cells were mixed again by pipetting up and down twenty times with a serological pipette. The final cell density was 70 cells/ml.\nSeeding: Cells were seeded column-wise in 6-well plates, while triplicates were treated row-wise. Three ml cell suspension solution (210 cells) were added per well.\nTreatment: Compound stock solutions were prepared at a concentration of 30 mM in 50% DMSO/50% water; and diluted in the same solution so that the volume added to the wells was of 5 μl and the final DMSO well concentration 0.08%. Untreated cells (negative controls) were incubated in a) medium only; and b) 0.08% DMSO. […] Tests showing less than 75% or more than 95% inhibition were repeated. The plates were swirled gently after addition of the compounds and the cells incubated for 14 days at 37° C. Culture incubation solutions were replaced after one week.\nStaining: Colonies were washed twice with ice-cold DPBS and fixed on ice with 1 ml ice-cold 10% methanol solution for 30 min. The methanol solution was removed and colonies incubated with 0.1% Crystal Violet/DBPS for 20 min at room temperature. The wells were rinsed with water at room temperature, let dry and colonies were counted. Compounds e.g., compounds of Table 2 and 3 were classified as follows: […]"}, "[1]": {"tested_on": "HPV-positive head-and-neck squamous cell carcinoma model #HN11303", "test": "Patient-derived xenograft mouse model for head-and-neck squamous cell carcinoma (HN11303)", "format": "in vivo", "conditions": "subcutaneous HPV-positive HNSCC model, female NMRI nu/nu mice", "procedure": "Female NMRI nu/nu mice were injected with cells derived from a human head-and-neck cancer (model #HN11303, an HPV-positive head-and-neck squamous cell carcinoma, EPO-GmbH, Berlin, Germany). The cells were inoculated subcutaneously into the left flank of 40 mice. Thirteen days later tumors reached a mean volume of approximately 107 mm^3, and mice were randomly assigned to five treatment groups of each eight mice (TABLE 23). Body weights were measured twice weekly. Tumor burden was assessed by caliper measurement twice weekly. Dosing breaks were applied when tolerability issues arose (body weight loss>10). The study was terminated five weeks post first dosing. The experiment was performed in the EPO animal testing facility (Experimental Pharmacology and Oncology GmbH, 13125 Berlin-Buch, Germany)."}, "HCT116": {"tested_on": "HCT116", "test": "9-day colony survival assay (CFA)", "format": "cell-based", "conditions": "Homo sapiens, HCT-116, 216 h, HCT116 (colon), read-out: GI50 (50% growth inhibition)"}, "PC3": {"tested_on": "PC3", "test": "9-day colony survival assay (CFA)", "format": "cell-based", "conditions": "Homo sapiens, PC-3, 216 h, PC3 (prostate), read-out: GI50 (50% growth inhibition)"}, "CaSki": {"tested_on": "CaSki", "test": "9-day colony survival assay (CFA)", "format": "cell-based", "conditions": "Homo sapiens, Ca-Ski, 216 h, CaSki (cervix), read-out: GI50 (50% growth inhibition)", "from_the_text": "Cell culture. CaSki cells (cervical cancer) were obtained from CLS GmbH, Eppelheim, Germany (cat #300145) and subcultured in ready-to-use RPMI1640 Media (CLS #820700) after addition of “Antibiotic Antimycotic Solution” (Sigma-Aldrich, St Louis, USA) at 1:100 dilution. The cells were expanded, and aliquots kept frozen in liquid nitrogen according to manufacturer's instructions; tested for mycoplasma contamination and genotyped (Microsynth AG, Balgach, Switzerland). Once thawed, aliquots were passaged every second or third day at a seed density of 20′000 cells/cm^2; and used for a maximum of twenty passages. For passaging, cell culture flasks were rinsed twice with Ca++/Mg++-free Phosphate-Buffered Saline (DPBS, CLS #860015) and incubated with Accutase (CLS #830100) for 15 min at 37° C. Cells were resuspended in a four-fold volume of ready-to-use RPMI, centrifuged at 300 g for ten minutes, the supernatant discarded and the cells resuspended in ready-to-use RPMI1640 by pipetting up and down five times with a serological pipette. Cell density was determined with a Via-1 Cassette (Chemometec, Allerod, Denmark) on a Nucleocounter NC 3000 (Chemometec). Where not stated, consumables and chemicals were purchased from well-known suppliers.\nPreparation of the cells for CFA. Cell culture flasks were rinsed twice with DPBS and incubated with Accutase for 15 min at 37° C. Cells were resuspended in a four-fold volume of ready-to use RPMI, centrifuged at 300 g for ten minutes, the supernatant discarded and the cells resuspended in ready-to-use RPMI1640 by pipetting up and down ten times with a serological pipette. Cell density was determined with a Via-1 Cassette on a Nucleocounter NC 3000. The required amount of cells was first diluted 1:10 in ready-to-use RPMI; cells pipetted five times up-down with a serological pipette; and the 1:10 solution added to the final volume needed for the whole assay setup. Cells were mixed again by pipetting up and down twenty times with a serological pipette. The cell density used for the experiment was of 140 cells/ml.\nSeeding. Cells were seeded row-wise in 12-well plates, while triplicates were treated column-wise (i.e. all the first rows were seeded first, then the second rows, and finally the third rows). One and a half ml cell suspension solution (a total of 210 cells) were added per well.\nTreatment. Compound stock solutions were prepared at a concentration of 30 mM in 50% DMSO/50% water; and diluted in the same solution so that the volume added to the wells was of 2.5 μl and the final DMSO well concentration of 0.08%. Untreated cells (negative controls) were incubated in a) medium only; and b) 0.08% DMSO. […] The plates were swirled gently after addition of the compounds and the cells incubated for nine days at 37° C. Culture incubation solutions were replaced after five days.\nStaining. Colonies were washed twice with ice-cold DPBS and fixed on ice with 1 ml ice-cold 10% methanol solution for 30 min. The methanol solution was removed and colonies incubated with 0.1% Crystal Violet/DBPS for 20 min at room temperature. The wells were rinsed consecutively with 1.5, 1, and 0.5 ml water at room temperature and let dry.\nDestaining and data evaluation. […] Absorbance was measured at 600 nm with a SpectraMax M2e reader (Molecular Devices, Sunnyvale, CA, USA). Percentage of colony formation was calculated from the average of the well triplicates compared to the untreated DMSO controls after subtraction of blank values. […]"}, "A549": {"tested_on": "A549", "test": "9-day colony survival assay (CFA)", "format": "cell-based", "conditions": "Homo sapiens, 216 h, A549 (lung), read-out: GI50 (50% growth inhibition)"}}}
{"smiles": "CC(C)C[C@@H](C(=O)N1CCC(CC(N)=O)CC1)N1CCN[C@@H](CC(C)(C)C)C1=O", "note": "[Compound 114, (1-{(S)-2-[(S)-3-Neopentyl-2-oxo-1-piperazinyl]-4-methylvaleryl}-4-piperidyl)acetamide]", "values": [{"measurement": "inhibition at 0.7 µM", "setting": "CaSki cells", "result": "< 0", "unit": "%"}]}
{"smiles": "CC(C)C[C@@H]1NCCN([C@@H](CC(C)C)C(=O)N2CCC(Cc3ncc[nH]3)CC2)C1=O", "note": "[Compound 57, (S)-1-[(S)-1-({4-[(1H-Imidazol-2-yl)methyl]-1-piperidyl}carbonyl)-3-methylbutyl]-3-isobutyl-2-piperazinone]", "values": [{"measurement": "inhibition at 10 µM", "setting": "CaSki cells; 10 μM, reference compound standard treatment, 14 days", "result": "80 to 90", "unit": "%"}, {"measurement": "mean TV", "setting": "[1]; day 13", "result": 0.1073, "unit": "cm^3"}, {"measurement": "mean TV", "setting": "[1]; day 15", "result": 0.1106, "unit": "cm^3"}, {"measurement": "mean TV", "setting": "[1]; day 18", "result": 0.1166, "unit": "cm^3"}, {"measurement": "mean TV", "setting": "[1]; day 21", "result": 0.1081, "unit": "cm^3"}, {"measurement": "mean TV", "setting": "[1]; day 25", "result": 0.1233, "unit": "cm^3"}, {"measurement": "mean TV", "setting": "[1]; day 29", "result": 0.1421, "unit": "cm^3"}, {"measurement": "mean TV", "setting": "[1]; day 33", "result": 0.2009, "unit": "cm^3"}, {"measurement": "mean TV", "setting": "[1]; day 36", "result": 0.1776, "unit": "cm^3"}]}
{"smiles": "CC(C)(C)C[C@@H](C(=O)N1CCC(CC(N)=O)CC1)N1CCN[C@@H](CC2CC2)C1=O", "note": "[Compound 94, (1-{(S)-2-[(S)-3-(Cyclopropylmethyl)-2-oxo-1-piperazinyl]-4,4-dimethylvaleryl}-4-piperidyl)acetamide]", "values": [{"measurement": "inhibition at 0.7 µM", "setting": "CaSki cells", "result": "< 0", "unit": "%"}]}
{"smiles": "CC(C)C[C@@H]1NCCN([C@@H](CC(C)C)C(=O)N2CCC3(C[C@@H]2C)O[C@H]2C[C@@H](N(C)C)C[C@H]2O3)C1=O", "note": "(stereo partly drawn) [Compound 292, (S)-1-[(S)-1-({(1R,5S,2′S)-7-(Dimethylamino)-2′-methylspiro[2.4-di-oxabicyclo[3.3.0]oc-tane-3,4′-piperidin]-1′-yl}carbonyl)-3-methylbutyl]-3-isobutyl-2-piperazinone]", "values": [{"measurement": "inhibition at 0.7 µM", "setting": "CaSki cells", "result": "< 0", "unit": "%"}]}
{"smiles": "CC(C)C[C@H]1C(=O)N([C@@H](CC(C)C)C(=O)N2CCC3(C[C@@H]2C)OCC(CN2CCCC2)CO3)CCN1C", "note": "(stereo partly drawn) [Compound 287, (3S)-4-methyl-1-[(2S)-4-methyl-1-oxo-1-[(3s,6s,8S)-8-methyl-3-(pyrrolidin-1-ylmethyl)-1,5-dioxa-9-azaspiro[5.5]undec-an-9-yl]pentan-2-yl]-3-(2-methylpropyl)piper-azin-2-one (^≠), isomer Z]", "values": [{"measurement": "GI50", "setting": "HCT116", "result": 1.5, "unit": "nM"}, {"measurement": "GI50", "setting": "PC3", "result": 7, "unit": "nM"}, {"measurement": "GI50", "setting": "CaSki", "result": 13, "unit": "nM"}, {"measurement": "GI50", "setting": "A549", "result": 20, "unit": "nM"}]}
{"smiles": "CCCC[C@@H]1NCCN([C@@H](CC2CC2)C(=O)N2CCC(CC(N)=O)CC2)C1=O", "note": "[Compound 106, (1-{(S)-2-[(S)-3-Butyl-2-oxo-1-piperazinyl]-3-cyclopropylpro-pionyl}-4-piperidyl)acetamide]", "values": [{"measurement": "inhibition at 0.7 µM", "setting": "CaSki cells", "result": "< 0", "unit": "%"}]}
{"smiles": "CC(C)C[C@@H]1NCCN([C@@H](CC(C)C)C(=O)N2CCC3(C[C@@H]2C)OC2CN(C)C[C@@H]2O3)C1=O", "note": "(stereo partly drawn) [Compound 300, (S)-1-[(S)-1-({(2′S)-7-Methyl-2′-methylspiro[2.4-dioxa-7-azabicyclo[3.3.0]oc-tane-3,4′-piperidin]-1′-yl}carbonyl)-3-methylbutyl]-3-isobutyl-2-piperazinone]", "values": [{"measurement": "inhibition at 0.7 µM", "setting": "CaSki cells", "result": "< 0", "unit": "%"}]}
{"smiles": "CC(C)C[C@@H]1NCCN([C@H](C(=O)N2CCC(CC(N)=O)CC2)C(C)C)C1=O", "note": "[Compound 90, (1-{(S)-2-[(S)-3-Isobutyl-2-oxo-1-piperazinyl]-3-methylbutyryl}-4-piperidyl)acetamide]", "values": [{"measurement": "inhibition at 0.7 µM", "setting": "CaSki cells", "result": "< 0", "unit": "%"}]}
{"smiles": "CC(C)C[C@@H]1NCCN([C@@H](CC(C)C)C(=O)N2CCC3(C[C@@H]2C)OCC(c2nccn2C)CO3)C1=O", "note": "(stereo partly drawn) [Compound 260, (S)-1-[(S)-1-({(S)-8-Methyl-3-(1-methyl-1H-imidazol-2-yl)-1,5-dioxa-9-aza-9-spiro[5.5]un-decyl}carbonyl)-3-methylbutyl]-3-isobutyl-2-piperazinone]", "values": [{"measurement": "inhibition at 0.7 µM", "setting": "CaSki cells", "result": "< 0", "unit": "%"}]}
{"smiles": "CC(C)C[C@@H]1NCCN([C@@H](CC(C)C)C(=O)N2CCC3(C[C@@H]2C)OCC(c2ccccn2)CO3)C1=O", "note": "(stereo partly drawn) [Compound 285, (S)-1-[(S)-1-({(S)-8-Methyl-3-(2-pyridyl)-1,5-dioxa-9-aza-9-spiro[5.5]un-decyl}carbonyl)-3-methylbutyl]-3-isobutyl-2-piperazinone]", "values": [{"measurement": "inhibition at 0.7 µM", "setting": "CaSki cells", "result": "< 0", "unit": "%"}]}
{"smiles": "CC(C)C[C@@H]1NCCN([C@@H](CC(C)C)C(=O)N2CCC3(C[C@@H]2C)O[C@H]2CN(C)CC[C@H]2O3)C1=O", "note": "(stereo partly shown) [Compound 296]", "values": [{"measurement": "inhibition at 0.7 µM", "setting": "CaSki cells", "result": "< 0", "unit": "%"}]}
